Measured values taken from article PMC10584170, “Machine learning-based phenotypic imaging to characterise the targetable biology of Plasmodium falciparum male gametocytes for the development of transmission-blocking antimalarials” (PLOS Pathogens, 2023).
Like-named read-outs stand apart in the source and are kept apart here.

Assays:
[1] = system: P. falciparum male gametocytes; assay: P. falciparum Dual Gamete Formation Assay (PfDGFA), male readout (exflagellation); assay type: cell-based, Plasmodium falciparum NF54; conditions: for Selectivity Ratio M: HepG2 Tox50 versus male IC50; for IC50: PfDGFA, 24 h incubation with gametocytes before induction, exflagellation readout, read-out: Male IC50; for HitlevelM: number of replicates with >50% inhibition in the male readout
In short: (§1)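 Mature NF54 gametocytes (day 14) were incubated with compound for 24 h at 37°C under 1% O2/3% CO2, then triggered with xanthurenic acid ookinete medium plus Cy3-anti-Pfs25. Exflagellation was imaged by brightfield; after a further 24 h at 28°C, Pfs25-positive female gametes were imaged by fluorescence and counted by automated image analysis.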

[2] = system: P. falciparum female gametocytes; assay: P. falciparum Dual Gamete Formation Assay (PfDGFA), female readout (Pfs25-positive female gametes); assay type: cell-based, Plasmodium falciparum NF54; conditions: for Selectivity ratio F: HepG2 Tox50 versus female IC50; for IC50: PfDGFA, 24 h incubation with gametocytes before induction, female gamete readout, read-out: Female IC50; for HitlevelF: number of replicates with >50% inhibition in the female readout
In short: as §1

HepG2 cells = assay: HepG2 cytotoxicity counter-screen; conditions: cytotoxic activity against HepG2 cells
[3] = Plasmodium falciparum, PfDGFA at 2µM, 24h preincubation with gametocytes, average of replicates, read-out: Average inhibition male (%)
[4] = Plasmodium falciparum, PfDGFA at 2µM, 24h preincubation with gametocytes, replicate R1, read-out: % inhibition male (individual replicates) R1
[5] = Plasmodium falciparum, PfDGFA at 2µM, 24h preincubation with gametocytes, replicate R2, read-out: % inhibition male (individual replicates) R2
[6] = Plasmodium falciparum, PfDGFA at 2µM, 24h preincubation with gametocytes, replicate R3, read-out: % inhibition male (individual replicates) R3
[7] = Plasmodium falciparum, PfDGFA at 2µM, 24h preincubation with gametocytes, replicate R4, read-out: % inhibition male (individual replicates) R4
[8] = Plasmodium falciparum, PfDGFA at 2µM, 24h preincubation with gametocytes, average of replicates, read-out: Average inhibition female (%)
[9] = Plasmodium falciparum, PfDGFA at 2µM, 24h preincubation with gametocytes, replicate R1, read-out: % inhibition female (individual replicates) R1
[10] = Plasmodium falciparum, PfDGFA at 2µM, 24h preincubation with gametocytes, replicate R2, read-out: % inhibition female (individual replicates) R2
[11] = Plasmodium falciparum, PfDGFA at 2µM, 24h preincubation with gametocytes, replicate R3, read-out: % inhibition female (individual replicates) R3
[12] = Plasmodium falciparum, PfDGFA at 2µM, 24h preincubation with gametocytes, replicate R4, read-out: % inhibition female (individual replicates) R4
[13] = Plasmodium falciparum, 2µM, 24h preincubation with gametocytes, average of replicates, read-out: Average inhibition male (%)
[14] = Plasmodium falciparum, 2µM, 24h preincubation with gametocytes, replicate R1, read-out: % inhibition male (individual replicates) R1
[15] = Plasmodium falciparum, 2µM, 24h preincubation with gametocytes, replicate R2, read-out: % inhibition male (individual replicates) R2
[16] = Plasmodium falciparum, 2µM, 24h preincubation with gametocytes, replicate R3, read-out: % inhibition male (individual replicates) R3
[17] = Plasmodium falciparum, 2µM, 24h preincubation with gametocytes, replicate R4, read-out: % inhibition male (individual replicates) R4
[18] = Plasmodium falciparum, 2µM, 24h preincubation with gametocytes, average of replicates, read-out: Average inhibition female (%)
[19] = Plasmodium falciparum, 2µM, 24h preincubation with gametocytes, replicate R1, read-out: % inhibition female (individual replicates) R1
[20] = Plasmodium falciparum, 2µM, 24h preincubation with gametocytes, replicate R2, read-out: % inhibition female (individual replicates) R2
[21] = Plasmodium falciparum, 2µM, 24h preincubation with gametocytes, replicate R3, read-out: % inhibition female (individual replicates) R3
[22] = Plasmodium falciparum, 2µM, 24h preincubation with gametocytes, replicate R4, read-out: % inhibition female (individual replicates) R4
[23] = 2µM, 24h preincubation with gametocytes, average of replicates
[24] = 2µM, 24h preincubation with gametocytes, replicate R1
[25] = 2µM, 24h preincubation with gametocytes, replicate R3
[26] = 2µM, 24h preincubation with gametocytes, replicate R4

| IC50 ([1]; Plasmodium falciparum) | IC50 ([2]; Plasmodium falciparum) | Compound | Selectivity Ratio M [1] | inhibition at 2 µM [1, 3] | inhibition at 2 µM [1, 4] | inhibition at 2 µM [1, 5] | inhibition at 2 µM [1, 6] | inhibition at 2 µM [1, 7] | HitlevelM ([1]; 2µM) | Selectivity ratio F [2] | inhibition at 2 µM [2, 8] | inhibition at 2 µM [2, 9] | inhibition at 2 µM [2, 10] | inhibition at 2 µM [2, 11] | inhibition at 2 µM [2, 12] | HitlevelF ([2]; 2µM) | Tox50 (HepG2 cells) | other results |
| --- | --- | --- | --- | --- | --- | --- | --- | --- | --- | --- | --- | --- | --- | --- | --- | --- | --- | --- |
| 620 nM | > 10000 nM | COCCN(C)CCCOc1cc2c(cc1OC)ncn2-c1cc(OCc2ccccc2C(F)(F)F)c(C(N)=O)s1.Cl [TCMDC-135214] | 22.02 | 64.6% | 90.7% | 80.9% | 65.9% | 20.9% | 3 | 1.36 | 20.2% | 22.9% | 10% | 11% | 36.6% | 0 | 13.65 µM | – |
| 430 nM | > 10000 nM | COc1ccc2nc(-c3cc(-c4ccc(NC(=O)C(C)C)cc4)cnc3N)[nH]c2c1 [TCMDC-135322] | 19.53 | 72% | 76.6% | 80.3% | 78.9% | 52.3% | 4 | 0.84 | -9% | -9.8% | -5.2% | -4.1% | -17% | 0 | 8.38 µM | – |
| 540 nM | > 10000 nM | COc1ccc2nc(-c3cc(-c4ccc(NC(C)=O)cc4)cnc3N)[nH]c2c1 [TCMDC-135365] | 5.74 | – | – | – | – | – | – | 0.31 | – | – | – | – | – | – | 3.08 µM | HitlevelM ([1]; 2µM, 24h preincubation): 3; inhibition at 2 µM ([1]; Plasmodium falciparum, 2µM, 24h preincubation with gametocytes prior to induction of gametogenesis, average of replicates, read-out: Average inhibition male (%)): 61.3%; inhibition at 2 µM ([1]; Plasmodium falciparum, 2µM, 24h preincubation with gametocytes prior to induction of gametogenesis, replicate R1, read-out: % inhibition male (individual replicates) R1): 62.6%; inhibition at 2 µM ([1]; Plasmodium falciparum, 2µM, 24h preincubation with gametocytes prior to induction of gametogenesis, replicate R2, read-out: % inhibition male (individual replicates) R2): 72.6%; inhibition at 2 µM ([1]; Plasmodium falciparum, 2µM, 24h preincubation with gametocytes prior to induction of gametogenesis, replicate R3, read-out: % inhibition male (individual replicates) R3): 63.7%; inhibition at 2 µM ([1]; Plasmodium falciparum, 2µM, 24h preincubation with gametocytes prior to induction of gametogenesis, replicate R4, read-out: % inhibition male (individual replicates) R4): 46.2%; HitlevelF ([2]; 2µM, 24h preincubation): 0; inhibition at 2 µM ([2]; Plasmodium falciparum, 2µM, 24h preincubation with gametocytes prior to induction of gametogenesis, average of replicates, read-out: Average inhibition female (%)): -1.9%; inhibition at 2 µM ([2]; Plasmodium falciparum, 2µM, 24h preincubation with gametocytes prior to induction of gametogenesis, replicate R1, read-out: % inhibition female (individual replicates) R1): -7.6%; inhibition at 2 µM ([2]; Plasmodium falciparum, 2µM, 24h preincubation with gametocytes prior to induction of gametogenesis, replicate R2, read-out: % inhibition female (individual replicates) R2): 14.6%; inhibition at 2 µM ([2]; Plasmodium falciparum, 2µM, 24h preincubation with gametocytes prior to induction of gametogenesis, replicate R3, read-out: % inhibition female (individual replicates) R3): -10.3%; inhibition at 2 µM ([2]; Plasmodium falciparum, 2µM, 24h preincubation with gametocytes prior to induction of gametogenesis, replicate R4, read-out: % inhibition female (individual replicates) R4): -4.4% |

The next lines start with the molecule.

| Compound | IC50 ([1]; Plasmodium falciparum) | IC50 ([2]; Plasmodium falciparum) | Selectivity Ratio M [1] | inhibition at 2 µM [1, 3] | inhibition at 2 µM [1, 4] | inhibition at 2 µM [1, 5] | inhibition at 2 µM [1, 6] | inhibition at 2 µM [1, 7] | HitlevelM ([1]; 2µM) | Selectivity ratio F [2] | inhibition at 2 µM [2, 8] | inhibition at 2 µM [2, 9] | inhibition at 2 µM [2, 10] | inhibition at 2 µM [2, 11] | inhibition at 2 µM [2, 12] | HitlevelF ([2]; 2µM) | Tox50 (HepG2 cells) | other results |
| --- | --- | --- | --- | --- | --- | --- | --- | --- | --- | --- | --- | --- | --- | --- | --- | --- | --- | --- |
| Cc1cccc(Nc2nc(NCCCCN)nc3cc[nH]c(=O)c23)c1.O=C(O)C(F)(F)F [TCMDC-134946] | 380 nM | > 10000 nM | 75.16 | 89.5% | 94.1% | 93.5% | 87.3% | 82.9% | 4 | 2.87 | 9% | 6.6% | 23% | 13.1% | -6.7% | 0 | 28.66 µM | – |
| O=C(O)C(F)(F)F.O=c1[nH]ccc2nc(N[C@@H]3CCCNC3)nc(Nc3ccc(S(=O)(=O)N4CCOCC4)cc3)c12 [TCMDC-135038] | 60 nM | 8170 nM | 342.32 | – | – | – | – | – | – | 2.68 | – | – | – | – | – | – | 21.89 µM | inhibition at 2 µM [1, 13]: 97.4%; inhibition at 2 µM [1, 14]: 93.1%; inhibition at 2 µM [1, 15]: 99.1%; inhibition at 2 µM [1, 16]: 99.2%; inhibition at 2 µM [1, 17]: 98.2%; inhibition at 2 µM [2, 18]: 14.1%; inhibition at 2 µM [2, 19]: 2.2%; inhibition at 2 µM [2, 20]: 10.6%; inhibition at 2 µM [2, 21]: 4.3%; inhibition at 2 µM [2, 22]: 39.1% |
| O=C(O)C(F)(F)F.O=c1[nH]ccc2nc(N[C@@H]3CCNC3)nc(Nc3cc(Cl)cc(Cl)c3)c12 [TCMDC-135052] | – | – | 4.82 | – | – | – | – | – | – | 1.49 | – | – | – | – | – | – | 7.37 µM | Average inhibition male (%) [1, 23]: 90.0%; % inhibition male (individual replicates) R1 [1, 24]: 96.4%; % inhibition male (individual replicates) R3 [1, 25]: 98.4%; % inhibition male (individual replicates) R4 [1, 26]: 88.5%; IC50 [1]: 1530 nM; Average inhibition female (%) [2, 23]: 61.3%; % inhibition female (individual replicates) R1 [2, 24]: 75.7%; % inhibition female (individual replicates) R3 [2, 25]: 60.7%; % inhibition female (individual replicates) R4 [2, 26]: 86.1%; IC50 [2]: 4940 nM |
| CCS(=O)(=O)Nc1ccc2c(c1)/C(=C(/Nc1ccc(CN3CCCCC3)cc1)c1ccccc1)C(=O)N2 [TCMDC-135395] | 10 nM | > 10000 nM | 46.97 | – | – | – | – | – | – | 0.06 | – | – | – | – | – | – | 0.56 µM | inhibition at 2 µM [1, 13]: 91.1%; inhibition at 2 µM [1, 14]: 87%; inhibition at 2 µM [1, 15]: 89.8%; inhibition at 2 µM [1, 16]: 92.4%; inhibition at 2 µM [1, 17]: 95.2%; inhibition at 2 µM [2, 18]: -5.9%; inhibition at 2 µM [2, 19]: -6.3%; inhibition at 2 µM [2, 20]: -3.4%; inhibition at 2 µM [2, 21]: 1.2%; inhibition at 2 µM [2, 22]: -15.3% |
